The target in one data set is human LOXL2 (Homo sapiens (Human), UniProt Q9Y4K0). The data set is described as follows: Human LOXL2 CCM assay (Amplex Red amine oxidase activity). The format is biochemical. Here is the method:
Human LOXL2/CHO and human LOX/HEK stable cell lines were cultured under normal growth conditions in 15 cm tissue culture plates until cells were ˜80% confluent. Cells were then washed with PBS before the addition of 25-30 mL serum-free media (Phenol red-free DMEM/F12 mix w/glutamax containing pen/strep, 10-100 μM CuCl2±0.1% BSA). Cells were incubated at 37° C., 5% CO2 in serum-free media for 40-48 hours before the conditioned media was removed and centrifuged at 2000 rpm for 5 min at 4° C. to pellet cells/debris. The media was concentrated 10-20× using 10-30 MWCO centriprep columns according to the manufacturer's instructions (EMD Millipore, Billerica, Mass.) before aliquoting and storing at −80° C.
LOXL2 amine oxidase activity was evaluated by measuring Amplex Red fluorescence using 10-20× concentrated conditioned media (non BSA-containing) from CHO cells stably expressing human LOXL2. To assay for amine oxidase activity, 10 μL of the concentrated conditioned media was incubated with 2 μL of test compound in DMSO and 73 μL Assay Buffer (50 mM Borate Buffer, pH8) for 2 h at 37° C. After the 2 h incubation, 5 μL of 10 mM 1,5-Diaminopentane (DAP) diluted in Assay Buffer and 10 μL of Amplex Red Mix (8.5 μL Assay Buffer+0.5 μL of 10 mM Amplex Red+1 μL of 500 U/ml Horseradish Peroxidase) were added and the plate mixed and immediately placed on the FlexStation for fluorescence measurements. Fluorescence was read in kinetic mode every 2 min for 0.5-1 hour at excitation=544 and emission=590. The amine oxidase activity was calculated from the slope of the linear portion of the curve. Wells containing vehicle (DMSO) represented maximum activity and were set to 0% inhibition and wells containing 100 μM βAPN (3-aminopropionitrile) represented no activity and were set to 100% inhibition.

Data set [1] has as its system collagen induced arthritis (CIA). Particulars: in vivo CIA mouse model; cited from earlier work.
A further data set deals with MDA-MB-435-GFP cells. Kind of data set: Mouse orthotopic breast cancer model. Type of data set: in vivo. Particulars: oral 60 mg/kg/day, at 4 weeks, nude mice. Here is the method:
Tumor stocks were made by subcutaneously (s.c.) injecting MDA-MB-435-GFP cells at a concentration of 5×10^6 cells/100 μL into the flank of nude mice. When the s.c. tumors reach 50-100 mm^3, tumors were harvested and cut into 1 mm^3 fragments. Two tumor fragments were transplanted into the mammary fat pad of each mouse. […] Docetaxel was administered at 10 mg/kg intravenously once a week for 4 weeks as a positive control. Tumor size was calculated from a measurement of perpendicular minor dimension (W) and major dimension (L) using the formula (W2×L)×½ with W and L measured using a digital caliper. Mice were sacrificed after 4 weeks.

Data set [2] relates to bleomycin-induced lung fibrosis. Kind of data set: Mouse oropharyngeal bleomycin model of lung fibrosis. The format is in vivo.
Procedure: Lung fibrosis was induced in C57Bl/6 male mice by administering bleomycin (0.1-4 U/kg) via oropharyngeal instillation. Mice were either pretreated with vehicle or test compound orally, intraperitoneally, intravenously or subcutaneously either prophylactically (1 day to 1 hour before bleomycin instillation) or therapeutically (7-14 days post bleomycin instillation). The route and frequency of dosing were based on previously determined pharmacokinetic properties for the LOXL2 inhibitor in mouse. After bleomycin instillation, animals were monitored daily for weight loss and clinical signs for 14-28 days prior to sacrifice. Animals were euthanized at study termination and weighed. […] For histological examination, lung slices were stained with Masson's trichrome or picrosirius red to measure fibrillar collagen as an indicator of fibrosis and an Ashcroft score of lung fibrosis and inflammatory damage determined. […] After the acid hydrolysis, 25-100 μL of the supernatant is dried down, resuspended in 25 μL water and the hydroxyproline content determined by the addition of 0.5 mL Chloramine T solution (140 mg Chloramine T in 6.5 ml ddH2O+1 ml n-propanol+2.5 mL 1M sodium acetate) and incubation at room temperature for 20 min. […]
Fibrotic status was assessed histologically on Day 21 using Ashcroft score as a primary measure of lung fibrosis. […]
The nature of data set [3]: Pharmacokinetic study of Compound 1 or 2 in rat. Type of data set: in vivo. Particulars: male. Here is the method: Blood samples were taken from each rat (approximately 0.3 mL total blood per time point) at pre-dose, 5 or 15 min and then at various time points up to 24 hours post-dose. Samples were collected on wet ice in tubes containing potassium EDTA (w/v in normal saline; BD Biosciences, Franklin Lakes, N.J. Plasma samples, prepared by centrifugation of whole blood, were stored frozen (−80° C.) prior to analysis. All other reagents were of analytical grade.
(§1) Analysis was performed on an LC-MS/MS systems comprised of a Sciex API-4000Qt tandem mass spectrometer (AB Sciex, Foster City, Calif.) interfaced to an HPLC system consisting of a single Agilent 1200 Series Quaternary system pump (Santa Clara, Calif.) and a LEAP PAL auto-injector (Greenville, S.C.). Analyses were performed using an Agilent Zorbax SB-C8 column (2.1×50 mm; 5 μm) for chromatographic separations at room temperature.

The next data set is described as follows: in vivo. Particulars: dog. The method, then: Blood samples were taken from each dog (approximately 1 mL total blood per time point) at pre-dose, 5 or 15 min and then at various time points up to 24 hours post-dose. Samples were collected on wet ice in tubes containing potassium EDTA (w/v in normal saline; BD Biosciences, Franklin Lakes, N.J. Plasma samples, prepared by centrifugation of whole blood, were stored frozen (−80° C.) prior to analysis. All other reagents were of analytical grade.
as §1

The subject of data set [4] is liver fibrosis in BALB/c.Mdr2-/- mice. Kind of data set: Mouse Mdr2 knockout model of biliary fibrosis. Type of data set: in vivo. Particulars: a model of liver fibrosis. Here is the method:
Liver disease develops in the BALB/c.Mdr2−/− mouse model with bridging fibrosis/early cirrhosis between 8 and 12 weeks of age (Ikenaga et al. 2015 Am J Pathology, 185: 325-334). […] At the end of the study, mice were anesthetized with isoflurane (1.5% v/v) via precise vaporizer. After laparotomy, portal pressure was measured directly by inserting a high-fidelity pressure catheter into the portal vein and measuring pressure signals for 5 minutes. Serum was collected for analysis of liver (ALT, AST, ALP, and bilirubin) and kidney (creatinine) biochemistries. Part of the liver was fixed in 10% neutral buffered formalin for histopathological analysis of inflammation, necrosis and fibrosis by H&E staining and picrosirius red staining. Collagen area fraction was measured from picrosirius red stained images using an algorithm that separates the red stained collagen from non-specific staining through color subtraction and thresholding of the processed image. Sections were analyzed in random order using the same threshold value for each set. Data were deconvolved after analysis to identify group assignment. Collagen content was determined from a portion of the liver tissue using hydroxyproline analysis.

Setting [5] is: PO, 0.5% MC, 30 mg/kg, fasted, AUC0-t PO/AUC0-t IV.
[6] abbreviates: plasma, iv, 2 mg/kg, saline, fed.

Each structure is given as a SMILES string. Where two headings read alike, the source gives them in different places.

human LOXL2, sequence (Q9Y4K0 26-774): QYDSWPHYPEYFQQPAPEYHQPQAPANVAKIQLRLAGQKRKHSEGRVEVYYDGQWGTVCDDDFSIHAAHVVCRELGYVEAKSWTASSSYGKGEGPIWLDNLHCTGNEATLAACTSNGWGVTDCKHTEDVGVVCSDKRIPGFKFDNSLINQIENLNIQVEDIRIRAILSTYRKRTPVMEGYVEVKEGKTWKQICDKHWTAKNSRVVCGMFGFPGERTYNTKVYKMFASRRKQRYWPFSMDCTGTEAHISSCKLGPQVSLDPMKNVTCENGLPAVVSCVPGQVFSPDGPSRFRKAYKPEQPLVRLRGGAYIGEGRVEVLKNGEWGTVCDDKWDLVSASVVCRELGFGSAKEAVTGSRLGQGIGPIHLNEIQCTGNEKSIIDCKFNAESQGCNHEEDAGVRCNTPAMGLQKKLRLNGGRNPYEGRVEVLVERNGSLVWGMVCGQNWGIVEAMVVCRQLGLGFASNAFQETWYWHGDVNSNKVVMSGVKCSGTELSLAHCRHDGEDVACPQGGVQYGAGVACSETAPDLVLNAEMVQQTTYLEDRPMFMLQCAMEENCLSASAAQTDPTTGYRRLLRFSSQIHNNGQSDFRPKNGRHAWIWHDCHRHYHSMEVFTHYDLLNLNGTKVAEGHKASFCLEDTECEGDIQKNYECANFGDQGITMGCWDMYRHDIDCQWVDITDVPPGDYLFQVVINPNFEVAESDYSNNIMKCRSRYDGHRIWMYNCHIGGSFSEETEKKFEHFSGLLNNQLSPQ

As a reminder, the IC50 is the concentration that gives 50% inhibition. As for `NCc1cc(Oc2cccc(C(=O)N3C[C@H](O)[C@@H](F)C3)c2)nc(C(F)(F)F)c1` (single isomer, unassigned) [Compound Ent-1], on human LOXL2 (human LOXL2 CCM (non BSA-containing), 2 h preincubation at 37° C., read-out: IC50), the IC50 was < 300 nM.

With `N#CCCN` [BAPN, β-aminopropionitrile], the “effect on collagen induced arthritis” value in data set [1] was “ameliorated collagen induced arthritis (CIA)”.

The Cmax is the peak of the concentration-time curve. By Tmax is commonly meant the time from dosing to the highest level. As a reminder, the AUC(0-t) is the area under the concentration-time curve up to a stated or last time point. High values mean high exposure, low ones low exposure. In the case of `NCc1cc(Oc2cccc(C(=O)N3C[C@@H](O)[C@H](F)C3)c2)nc(C(F)(F)F)c1` [Compound 1, (R,R)-trans-(3-((4-(aminomethyl)-6-(trifluoromethyl)pyridin-2-yl)oxy)phenyl)(3-fluoro-4-hydroxypyrrolidin-1-yl)methanone], the “reduction in tumor volume” value in the data set with MDA-MB-435-GFP cells was determined as 35%. Further, the IC50 on human LOXL2 (CCM containing BSA, read-out: IC50, LOXL2 (CCM containing BSA)) amounted to 116 nM. Besides, the “Ashcroft score, mean value after treatment” value in data set [2] (prophylactic, oral 60 mg/kg/day from Day -1, Day 14, reduced from mean 3.1) is recorded as 0.8. In data set [2] (recovery study, oral 60 mg/kg starting Day 14 after bleomycin, lungs harvested Day 28), the “normalization of Ashcroft score” value is given as 73%. The “AUC0-t hr/Dose” value worked out at 0.07 in data set [3] (IV, saline, 2 mg/kg, fed); 0.05 in data set [3] (PO, 0.5% MC, 30 mg/kg, fasted); 0.05 in data set [3] (PO, capsule, 15 mg/kg, fasted); 0.85 in the data set “in vivo” (po, 100 mg/kg). For the same compound, the “F(%)” value in data set [3] (setting [5]) was found to be 71%. The Cmax in data set [3] (plasma, iv, 2 mg/kg, IV, saline, 2 mg/kg, fed, read-out: Cmax) turned out to be 630 ng/mL; in data set [3] (plasma, po, 15 mg/kg, PO, capsule, 15 mg/kg, fasted, read-out: Cmax), 1200 ng/mL; in data set [3] (plasma, po, 30 mg/kg, PO, 0.5% MC, 30 mg/kg, fasted, read-out: Cmax), 1700 ng/mL; in “in vivo” (male, beagle, po, 100 mg/kg) it was 27 µg/mL. Further, the Tmax in data set [3] (plasma, iv, 2 mg/kg, IV, saline, 2 mg/kg, fed, read-out: Tmax) was determined as 4.98 min; in data set [3] (plasma, po, 15 mg/kg, PO, capsule, 15 mg/kg, fasted, read-out: Tmax), 36 min; in data set [3] (plasma, po, 30 mg/kg, PO, 0.5% MC, 30 mg/kg, fasted, read-out: Tmax), 15 min; in the data set “in vivo” (male, beagle, po, 100 mg/kg), 78 min. Also, the AUC(0-t) was 140 ng·h/mL in data set [3] (setting [6]); 740 ng·h/mL in data set [3] (plasma, po, 15 mg/kg, capsule, fasted); 1400 ng·h/mL in data set [3] (plasma, po, 30 mg/kg, 0.5% MC, fasted); 85000 ng·h/mL in “in vivo” (male, beagle, po, 100 mg/kg, AUC(0-t hr)). Also, the bioavailability in data set [3] (setting [6]) turned out to be 100%; in data set [3] (plasma, oral, 15 mg/kg, capsule, fasted, AUC0-t PO/AUC0-t IV), 69%; in the data set “in vivo” (male, beagle, 100 mg/kg, F(%)), 283%. Moreover, the “emesis (clinical observations)” value in the data set “in vivo” (po) was “Emesis was prevalent in all dose groups”.

For `NCc1cc(Oc2cccc(C(=O)N3C[C@@H](O)[C@H](F)C3)c2)nc(C(F)(F)F)c1` [Compound 2, (R,R)-trans-(3-((4-(aminomethyl)-6-(trifluoromethyl)pyridin-2-yl)oxy)phenyl)(3-fluoro-4-hydroxypyrrolidin-1-yl)methanone], in data set [3] (PO, 0.5% MC, 30 mg/kg, fasted), the “AUC0-t hr/Dose” value worked out at 0.07, the “AUC(0-t hr)” value was 2.0 µg·h/mL, the Cmax stood at 2600 ng/mL and the Tmax amounted to 25.2 min. In addition, the “F(%)” value in data set [3] (setting [5]) came out at 95%. Moreover, in “in vivo” (po), the “emesis (clinical observations)” value was “Emesis was prevalent in all dose groups”; the “tolerability by dosing form (clinical observations)” value is “oral capsule and potentially the tablet were better tolerated”. Moreover, in “in vivo” (male, beagle, po, 300 mg/kg), the Cmax came to 143 µg/mL. The Tmax in the data set “in vivo” (male, beagle, po, 300 mg/kg, Tmax) worked out at 18 min.

As for `NCc1cc(Oc2cccc(C(=O)N3C[C@@H](O)[C@H](F)C3)c2)nc(C(F)(F)F)c1` [Compound I, (R,R)-trans-(3-((4-(aminomethyl)-6-(trifluoromethyl)pyridin-2-yl)oxy)phenyl)(3-fluoro-4-hydroxypyrrolidin-1-yl)methanone], the “fibrosis as area fraction of Picrosirius red (collagen) positive staining” value in data set [4] is listed as “significantly reduced fibrosis”. Further, the “potency relative to the (S,S)-isomer” value at human LOXL2 (in vitro assays) was “less than 2 fold”.

(Values after US11793797B2, “Uses of a lysyl oxidase-like 2 inhibitor” (PHARMAKEA, INC., priority 2016, dated 2023).)
